Our source for the EC50 values is US9511058B2, “Methods for using carboxamide, sulfonamide and amine compounds” (Rigel Pharmaceuticals, Inc., priority 2010, dated 2016).

SMILES strings stand for the structures. A value given as a limit tells only on which side of the number the result lay.

The target in the first experiment is AMPK. The experiment in a line: AMPK activation, enzyme-linked immunosorbent assay. Particulars: compounds of Table 1 (Table 6). In kind it is biochemical.
In the case of `O=S(=O)(NC1CCN(Cc2ccncc2)CC1)c1ccc(OC2CCN(c3ccc(C(F)(F)F)cc3)CC2)nc1` [1-51, N-(1-(pyridin-4-ylmethyl)piperidin-4-yl)-6-(1-(4-(trifluoromethyl)phenyl)piperidin-4-yloxy)pyridine-3-sulfonamide], the EC50 fell in the range of 100 to 500 nM. The compound `CC(C)(C)OC(=O)N1CCC(NC(=O)c2cc(OC3CCN(c4ccc(C(F)(F)F)cc4)CC3)ccn2)CC1` [1-12, tert-butyl 4-(4-(1-(4-(trifluoromethyl)phenyl)piperidin-4-yloxy)picolinamido)piperidine-1-carboxylate] had an EC50 of 500 to 1000 nM.

With `CC(C)(C)OC(=O)N1CCC(NS(=O)(=O)c2ccc(OC3CCN(c4ccc(C(F)(F)F)cc4)CC3)nc2)CC1` [1-54, tert-butyl 4-(6-(1-(4-(trifluoromethyl)phenyl)piperidin-4-yloxy)pyridine-3-sulfonamido)piperidine-1-carboxylate], the EC50 was in the range of 1000 to 5000 nM.

With `N#Cc1cccc(CN2CCC(NC(=O)c3cc4ccc(OC5CCN(c6ccc(C(F)(F)F)cc6)CC5)cc4s3)CC2)c1` [1-145, N-(1-(3-cyanobenzyl)piperidin-4-yl)-6-(1-(4-(trifluoromethyl)phenyl)piperidin-4-yloxy)benzo[b]thiophene-2-carboxamide], the EC50 was in the range of 100 to 500 nM. Still for that read-out and setting: the same measure for `O=C(O)c1ccc(CN2CCC(NC(=O)c3ccc(OC4CCN(c5ccc(C(F)(F)F)cc5)CC4)nc3)CC2)cc1` [1-46, 4-((4-(6-(1-(4-(trifluoromethyl)phenyl)piperidin-4-yloxy)nicotinamido)piperidin-1-yl)methyl)benzoic acid]: 1000 to 5000 nM; for `O=C(NC1CCNCC1)c1cc2cc(OC3CCN(c4ccc(C(F)(F)F)cc4)CC3)ccc2o1` [1-86, N-(piperidin-4-yl)-5-(1-(4-(trifluoromethyl)phenyl)piperidin-4-yloxy)benzofuran-2-carboxamide]: more than 10000 nM; for `O=C(N[C@H]1CCN(Cc2ccncc2)C1)c1ccc(OC2CCN(c3ccc(C(F)(F)F)cc3)CC2)cn1` [1-30, (S)-N-(1-(pyridin-4-ylmethyl)pyrrolidin-3-yl)-5-(1-(4-(trifluoromethyl)phenyl)piperidin-4-yloxy)picolinamide]: less than 100 nM.

`CN(C(=O)c1cc2cc(OC3CCN(c4ccc(C(F)(F)F)cc4)CC3)ccc2o1)C1CCN(C(=O)OC(C)(C)C)CC1` [1-102, tert-butyl 4-(N-methyl-5-(1-(4-(trifluoromethyl)phenyl)piperidin-4-yloxy)benzofuran-2-carboxamido)piperidine-1-carboxylate] displayed an EC50 of 1000 to 5000 nM. The same measure, in the same setting: the result for `CC(C)(C)OC(=O)N1CCC(NC(=O)c2cc3cc(OC4CCN(c5ccc(C(F)(F)F)cc5)CC4)ccc3s2)CC1` [1-149, tert-butyl 4-(5-(1-(4-(trifluoromethyl)phenyl)piperidin-4-yloxy)benzo[b]thiophene-2-carboxamido)piperidine-1-carboxylate] reads less than 100 nM; that for `N#Cc1ccccc1CN1CCC(NC(=O)c2cc3ccc(OC4CCN(c5ccc(OC(F)(F)F)cc5)CC4)cc3o2)CC1` [1-97, N-(1-(2-cyanobenzyl)piperidin-4-yl)-6-(1-(4-(trifluoromethoxy)phenyl)piperidin-4-yloxy)benzofuran-2-carboxamide], less than 100 nM.

Regarding `O=C(NC1CN(Cc2ccncc2)C1)c1ccc(OC2CCN(c3ccc(C(F)(F)F)cc3)CC2)cn1` [1-42, N-(1-(pyridin-4-ylmethyl)azetidin-3-yl)-5-(1-(4-(trifluoromethyl)phenyl)piperidin-4-yloxy)picolinamide], the EC50 was in the range of 1000 to 5000 nM.

With `O=C(NC1CCN(Cc2ccc(F)cc2)CC1)c1ccnc(OC2CCN(c3ccc(C(F)(F)F)cc3)CC2)c1` [1-22, N-(1-(4-fluorobenzyl)piperidin-4-yl)-2-(1-(4-(trifluoromethyl)phenyl)piperidin-4-yloxy)isonicotinamide], the EC50 was 1000 to 5000 nM. Still for that read-out and setting: the result for `O=C(NC1CCN(Cc2ccccc2)CC1)c1cc2cc(OC3CCN(Cc4ccc(F)c(F)c4)CC3)ccc2o1` [1-74, N-(1-benzylpiperidin-4-yl)-5-(1-(3,4-difluorobenzyl)piperidin-4-yloxy)benzofuran-2-carboxamide] reads 100 to 500 nM; that for `N#Cc1ccc(N2CCC(Oc3ccc(C(=O)NC4CCN(Cc5cccnc5)CC4)nc3)CC2)cc1` [1-6, N-(1-(pyridin-3-ylmethyl)piperidin-4-yl)-5-(1-(4-cyanophenyl)piperidin-4-yloxy)picolinamide], 100 to 500 nM; that for `O=C(NC1CCN(Cc2ccccc2)CC1)c1cc2cc(OC3CCN(c4ccc(C(F)(F)F)cc4)CC3)ccc2o1` [1-75, N-(1-benzylpiperidin-4-yl)-5-(1-(4-(trifluoromethyl)phenyl)piperidin-4-yloxy)benzofuran-2-carboxamide], less than 100 nM. As for `O=C(NC1CCN(Cc2ccccc2)CC1)c1cc2cc(OC3CCN(c4ccc(OC(F)(F)F)cc4)CC3)ccc2o1` [1-80, N-(1-benzylpiperidin-4-yl)-5-(1-(4-(trifluoromethoxy)phenyl)piperidin-4-yloxy)benzofuran-2-carboxamide], the EC50 was less than 100 nM.

The same experiment, now with this note: compounds of Table 2 (Table 7).
In turn, `NC(=O)c1ccc(CN2CCc3[nH]c4ccc(C(=O)NC5CCN(Cc6ccc(C(F)(F)F)cc6)CC5)cc4c3C2)cc1` [2-47, 2-(4-carbamoylbenzyl)-N-(1-(4-(trifluoromethyl)benzyl)piperidin-4-yl)-2,3,4,5-tetrahydro-1H-pyrido[4,3-b]indole-8-carboxamide] displayed an EC50 of 10000 to 50000 nM. On the same count and under the same terms, the same measure for `O=C(NC1CCN(C(=O)c2ccc(F)cc2)CC1)c1ccc2[nH]c3c(c2c1)CN(c1ccc(F)cc1)CC3` [2-39, N-(1-(4-fluorobenzoyl)piperidin-4-yl)-2-(4-fluorophenyl)-2,3,4,5-tetrahydro-1H-pyrido[4,3-b]indole-8-carboxamide]: 10000 to 50000 nM. `O=C(NC1CCN(Cc2ccncc2)CC1)c1ccc2[nH]c3c(c2c1)CN(Cc1ccccc1)CC3` [2-7, 2-benzyl-N-(1-(pyridin-4-ylmethyl)piperidin-4-yl)-2,3,4,5-tetrahydro-1H-pyrido[4,3-b]indole-8-carboxamide] displayed an EC50 of 5000 to 10000 nM. As to `N#Cc1ccc(CN2CCC(NC(=O)c3ccc4[nH]c5c(c4c3)CN(Cc3ccc(C(F)(F)F)cc3)CC5)CC2)cc1` [2-12, N-(1-(4-cyanobenzyl)piperidin-4-yl)-2-(4-(trifluoromethyl)benzyl)-2,3,4,5-tetrahydro-1H-pyrido [4,3-b]indole-8-carboxamide], the EC50 was less than 500 nM.

Staying with this experiment, now noted: compounds of Table 3 (Table 8).
`N#Cc1ccc(CN2CCC(NC(=O)c3ccc4c(c3)CN(Cc3ccc(F)cc3)CC4)CC2)cc1` [3-34, N-(1-(4-cyanobenzyl)piperidin-4-yl)-2-(4-fluorobenzyl)-1,2,3,4-tetrahydroisoquinoline-7-carboxamide] had an EC50 of less than 100 nM. On the same count and under the same terms, the same measure for `O=C(NC1CCN(C(=O)c2ccc(F)cc2)CC1)c1nc2ccc(OC3CCN(c4ccc(C(F)(F)F)cc4)CC3)cc2o1` [3-4, N-(1-(4-fluorobenzoyl)piperidin-4-yl)-6-(1-(4-(trifluoromethyl)phenyl)piperidin-4-yloxy)benzo[d]oxazole-2-carboxamide]: less than 100 nM.

Staying with this experiment, now noted: compounds of Table 5 (Table 10).
As to `COc1cc(C(=O)NC2CCN(Cc3ccccc3)CC2)ccc1OC1CCN(CCCc2ccccc2)CC1` [5-7, N-(1-benzylpiperidin-4-yl)-3-methoxy-4-(1-(3-phenylpropyl)piperidin-4-yloxy)benzamide], the EC50 is less than 1000 nM. Same read-out and setting: the same measure for `O=C(NC1CCN(Cc2ccncc2)CC1)c1ccc(OC2CCN(c3ccc(C(F)(F)F)cc3)CC2)c(F)c1` [5-28, 3-fluoro-N-(1-(pyridin-4-ylmethyl)piperidin-4-yl)-4-(1-(4-(trifluoromethyl)phenyl)piperidin-4-yloxy)benzamide]: less than 1000 nM; for `COc1ccc(CN2CCC(Oc3ccc(C(=O)NC4CCN(Cc5ccccc5)CC4)cc3Cl)CC2)cc1` [5-1, N-(1-benzylpiperidin-4-yl)-3-chloro-4-(1-(4-methoxybenzyl)piperidin-4-yloxy)benzamide]: less than 1000 nM. Same read-out and setting: the same measure for `N#Cc1ccc(CN2CCC(Oc3cccc(C(=O)NC4CCN(Cc5ccccc5)CC4)c3)CC2)cc1` [5-50, N-(1-benzylpiperidin-4-yl)-3-(1-(4-cyanobenzyl)piperidin-4-yloxy)benzamide]: 1000 to 10000 nM; for `CC(C)(C)c1ccc(CN2CCC(Oc3ccc(C(=O)NC4CCN(Cc5ccccc5)CC4)cc3Cl)CC2)cc1` [5-16, N-(1-benzylpiperidin-4-yl)-4-(1-(4-tert-butylbenzyl)piperidin-4-yloxy)-3-chlorobenzamide]: less than 1000 nM; for `O=C(NC1CCN(Cc2ccccc2)CC1)c1ccc(OC2CCN(c3cccs3)CC2)c(Cl)c1` [5-10, N-(1-benzylpiperidin-4-yl)-3-chloro-4-(1-(thiophen-2-yl)piperidin-4-yloxy)benzamide]: 1000 to 10000 nM. Same read-out and setting: the result for `CC(C)(C)c1ccc(CN2CCC(Oc3ccc(C(=O)NC4CCN(c5ccccc5)CC4)cc3F)CC2)cc1` [5-36, 4-(1-(4-tert-butylbenzyl)piperidin-4-yloxy)-3-fluoro-N-(1-phenylpiperidin-4-yl)benzamide] reads less than 1000 nM; that for `O=C(NC1CCN(Cc2ccccc2)CC1)c1cc(Cl)c(OC2CCN(Cc3ccc(Cl)cc3)CC2)c(Cl)c1` [5-75, N-(1-benzylpiperidin-4-yl)-3,5-dichloro-4-(1-(4-chlorobenzyl)piperidin-4-yloxy)benzamide], less than 1000 nM; that for `COc1cc(C(=O)NC2CCN(Cc3ccccc3)CC2)ccc1OC1CCN(c2ccco2)CC1` [5-12, N-(1-benzylpiperidin-4-yl)-3-methoxy-4-(1-(furan-2-yl)piperidin-4-yloxy)benzamide], 1000 to 10000 nM. `CC(C)(C)c1ccc(CN2CCC(Oc3ccc(C(=O)NC4CCN(Cc5ccccc5)CC4)cc3F)CC2)cc1` [5-20, N-(1-benzylpiperidin-4-yl)-3-fluoro-4-(1-(4-tert-butylbenzyl)piperidin-4-yloxy)benzamide]: the EC50 was less than 1000 nM. `O=C(NC1CCN(C(=O)c2ccncc2)CC1)c1ccc(OC2CCN(c3ccc(C(F)(F)F)cc3)CC2)c(F)c1` [5-40, 3-fluoro-N-(1-isonicotinoylpiperidin-4-yl)-4-(1-(4-(trifluoromethyl)phenyl)piperidin-4-yloxy)benzamide] showed an EC50 of less than 1000 nM.

What is called EC50 is the midpoint of the concentration-response curve. High values mean weaker potency, low ones greater potency.
